This passage reports Binding % results from patent US10111874B2, “Combination therapies for treatment of cancer” (Araxes Pharma LLC, priority 2014, dated 2018).

T1 sequence (P01116 1-169 isoform P01116-2 G12C): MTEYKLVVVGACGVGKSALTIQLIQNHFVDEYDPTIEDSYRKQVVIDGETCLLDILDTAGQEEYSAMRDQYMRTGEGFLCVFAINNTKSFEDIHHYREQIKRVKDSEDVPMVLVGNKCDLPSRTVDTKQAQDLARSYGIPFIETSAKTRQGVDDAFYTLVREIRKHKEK

This assay addresses T1, KRAS G12C 1-169, his-tagged protein, GDP-loaded (Homo sapiens, UniProt P01116, G12C).
T1 construct: KRAS G12C 1-169, his-tagged protein, GDP-loaded
Description: Biochemical assay: covalent binding to KRAS G12C analyzed by mass spectrometry. Also: test concentration or dose not given here. The following applies: compounds 48-246, measured at 2 h.
Regarding `C=CC(=O)N1CCN(c2ncnc3cc(Cl)c(-c4ccc(Cl)cc4)cc23)C[C@H]1CO` [Compound I-63, (S)-1-(4-(7-chloro-6-(4-chlorophenyl)quinazolin-4-yl)-2-(hydroxymethyl)piperazin-1-yl)prop-2-en-1-one], the Binding % entry is “+ (+indicates binding activity from 5% to 25%)”. Regarding `C=CC(=O)N1CCN(c2ncnc3cc(Cl)c(-c4ccc(Cl)cc4)cc23)C[C@@H]1C(N)=O` [Compound I-64, (R)-1-acryloyl-4-(7-chloro-6-(4-chlorophenyl)quinazolin-4-yl)piperazine-2-carboxamide], the Binding % result was “++ (++indicates binding activity greater than 25% and up to 50%)”. As to `C=CC(=O)N1CCN(c2ncnc3cc(Cl)c(-c4ccc(Cl)cc4)cc23)C[C@@H]1CO` [Compound I-65, (R)-1-(4-(7-chloro-6-(4-chlorophenyl)quinazolin-4-yl)-2-(hydroxymethyl)piperazin-1-yl)prop-2-en-1-one], the Binding % entry was “+ (+indicates binding activity from 5% to 25%)”.

For the molecule `CN(C)C/C=C/C(=O)N1CCN(c2ncnc3cc(Cl)c(-c4ccc(Cl)cc4)cc23)CC1C#N` (stereo not drawn) [Compound I-66, (E)-4-(7-Chloro-6-(4-chlorophenyl)quinazolin-4-yl)-1-(4-(dimethylamino)but-2-enoyl)piperazine-2-carbonitrile], the Binding % result was “++++ (++++indicates binding activity greater than 75%)”.

As to `C=CC(=O)N1CCN(c2ncnc3cc(-c4ccccc4)c(Cl)cc23)CC1` [Compound I-67, 1-(4-(6-chloro-7-phenylquinazolin-4-yl)piperazin-1-yl)prop-2-en-1-one], the Binding % result is “+++ (+++indicates binding activity greater than 50% and up to 75%)”. On to `C=CC(=O)N1CCN(c2ncnc3cc(C4CC4)c(Cl)cc23)CC1` [Compound I-68, 1-(4-(6-chloro-7-cyclopropylquinazolin-4-yl)piperazin-1-yl)prop-2-en-1-one], for which the Binding % entry is recorded as “+ (+indicates binding activity from 5% to 25%)”. For `C=CC(=O)N1CCN(c2ncnc3cc(Cl)c(-c4ccc(Cl)cc4)cc23)CC1CC(N)=O` (stereo not drawn) [Compound I-69, 2-(1-acryloyl-4-(7-chloro-6-(4-chlorophenyl)quinazolin-4-yl)piperazin-2-yl)acetamide], the Binding % entry is “+ (+indicates binding activity from 5% to 25%)”.

For the molecule `C=CC(=O)N1CCN(c2ncnc3cc(Cl)c(-c4ccc(Cl)cc4)cc23)CC1CC#N` (stereo not drawn) [Compound I-70, 2-(1-acryloyl-4-(7-chloro-6-(4-chlorophenyl)quinazolin-4-yl)piperazin-2-yl)acetonitrile], the Binding % result is “+++ (+++indicates binding activity greater than 50% and up to 75%)”. With `C=CC(=O)N1CCN(c2ncnc3ccc(-c4ccc(Cl)cc4)cc23)CC1` [Compound I-71, 1-(4-(6-(4-chlorophenyl)quinazolin-4-yl)piperazin-1-yl)prop-2-en-1-one] the entry was “+ (+indicates binding activity from 5% to 25%)”; with `C=CC(=O)N1CCN(c2ncnc3cc(-c4ccccc4Cl)c(Cl)cc23)CC1` [Compound I-72, 1-(4-(6-chloro-7-(2-chlorophenyl)quinazolin-4-yl)piperazin-1-yl)prop-2-en-1-one], “++ (++indicates binding activity greater than 25% and up to 50%)”; with `C=CC(=O)N1CCN(c2ncnc3cc(-c4cccc(Cl)c4)c(Cl)cc23)CC1` [Compound I-73, 1-(4-(6-chloro-7-(3-chlorophenyl)quinazolin-4-yl)piperazin-1-yl)prop-2-en-1-one], “++ (++indicates binding activity greater than 25% and up to 50%)”. With `C=CC(=O)N1CCN(c2ncnc3cc(-c4cccc(O)c4)c(Cl)cc23)CC1` [Compound I-75, 1-(4-(6-chloro-7-(3-hydroxyphenyl)quinazolin-4-yl)piperazin-1-yl)prop-2-en-1-one] the entry was “+ (+indicates binding activity from 5% to 25%)”. For `C=CC(=O)N1CCN(c2ncnc3cc(Oc4ccccc4)c(Cl)cc23)CC1` [Compound I-76, 1-(4-(6-chloro-7-phenoxyquinazolin-4-yl)piperazin-1-yl)prop-2-en-1-one], the Binding % entry is “+ (+indicates binding activity from 5% to 25%)”. With `C=CC(=O)N1CCN(c2ncnc3cc(-c4ccccc4CC)c(Cl)cc23)CC1` [Compound I-77, 1-(4-(6-chloro-7-(2-ethylphenyl)quinazolin-4-yl)piperazin-1-yl)prop-2-en-1-one], the Binding % entry was “+++ (+++indicates binding activity greater than 50% and up to 75%)”. Turning to `C=CC(=O)N1CCN(c2ncnc3cc(-c4ccc(Cl)cc4)c(Cl)cc23)CC1` [Compound I-78, 1-(4-(6-chloro-7-(4-chlorophenyl)quinazolin-4-yl)piperazin-1-yl)prop-2-en-1-one], the Binding % entry was “+ (+indicates binding activity from 5% to 25%)”.

With `C=CC(=O)N1CCN(c2ncnc3cc(-c4cccc(CC)c4)c(Cl)cc23)CC1` [Compound I-79, 1-(4-(6-chloro-7-(3-ethylphenyl)quinazolin-4-yl)piperazin-1-yl)prop-2-en-1-one], the Binding % result is reported as “+ (+indicates binding activity from 5% to 25%)”.

Take `C=CC(=O)N1CCN(c2ncnc3cc(N4CCNCC4)c(Cl)cc23)CC1` [Compound I-80, 1-(4-(6-chloro-7-(piperazin-1-yl)quinazolin-4-yl)piperazin-1-yl)prop-2-en-1-one]: the Binding % entry is reported as “+ (+indicates binding activity from 5% to 25%)”. With `C=CC(=O)N1CCN(c2ncnc3cc(-c4ccccc4F)c(Cl)cc23)CC1` [Compound I-81, 1-(4-(6-chloro-7-(2-fluorophenyl)quinazolin-4-yl)piperazin-1-yl)prop-2-en-1-one] the entry was “+++ (+++indicates binding activity greater than 50% and up to 75%)”.

As to `CN(C)C/C=C/C(=O)N1CCN(c2ncnc3cc(-c4ccccc4)c(Cl)cc23)CC1` [Compound I-82, (E)-1-(4-(6-chloro-7-phenylquinazolin-4-yl)piperazin-1-yl)-4-(dimethylamino)but-2-en-1-one], the Binding % entry is “+ (+indicates binding activity from 5% to 25%)”.

`C=CC(=O)N1CCN(c2ncnc3cc(-c4ccc(F)cc4)c(Cl)cc23)CC1` [Compound I-83, 1-(4-(6-chloro-7-(4-fluorophenyl)quinazolin-4-yl)piperazin-1-yl)prop-2-en-1-one]: the Binding % entry is “++ (++indicates binding activity greater than 25% and up to 50%)”. Regarding `C=CC(=O)N1CCN(c2ncnc3cc(-c4cccc(F)c4)c(Cl)cc23)CC1` [Compound I-84, 1-(4-(6-chloro-7-(3-fluorophenyl)quinazolin-4-yl)piperazin-1-yl)prop-2-en-1-one], the Binding % entry was “++ (++indicates binding activity greater than 25% and up to 50%)”. For `C=CC(=O)N1CCN(c2ncnc3cc(-c4ccccc4)c(Cl)cc23)CC1CC#N` (stereo not drawn) [Compound I-85, 2-(1-acryloyl-4-(6-chloro-7-phenylquinazolin-4-yl)piperazin-2-yl)acetonitrile], the Binding % entry is “+++ (+++indicates binding activity greater than 50% and up to 75%)”.

Regarding `C=CC(=O)N1CCN(c2ncnc3cc(-c4ccccc4)c(C4CC4)cc23)CC1` [Compound I-86, 1-(4-(6-cyclopropyl-7-phenylquinazolin-4-yl)piperazin-1-yl)prop-2-en-1-one], the Binding % entry is “+ (+indicates binding activity from 5% to 25%)”.

For `C=CC(=O)N1CCN(c2ncnc3cc(-c4ccccc4)ccc23)CC1` [Compound I-87], the Binding % entry is on record as “+ (+indicates binding activity from 5% to 25%)”. `C=CC(=O)N1CCN(c2nccc3cc(-c4ccccc4)c(Cl)cc23)CC1` [Compound I-88, 1-(4-(7-chloro-6-phenylisoquinolin-1-yl)piperazin-1-yl)prop-2-en-1-one]: the Binding % result is recorded as “+ (+indicates binding activity from 5% to 25%)”.

With `C=CC(=O)NC1CCN(c2ncnc3cc(-c4ccccc4)c(Cl)cc23)CC1` [Compound I-89, N-(1-(6-chloro-7-phenylquinazolin-4-yl)piperidin-4-yl)acrylamide], the Binding % entry is “+ (+indicates binding activity from 5% to 25%)”. The result for `C=CC(=O)N1CCN(c2ncnc3cc(-c4cccnc4)c(Cl)cc23)CC1` [Compound I-90, 1-(4-(6-chloro-7-(pyridin-3-yl)quinazolin-4-yl)piperazain-1-yl)prop-2-en-1-one] reads “+ (+indicates binding activity from 5% to 25%)”. The result for `C=CC(=O)N1CCN(c2ccnc3cc(-c4ccccc4)c(Cl)cc23)CC1` [Compound I-91, 1-(4-(6-chloro-7-phenylquinolin-4-yl)piperazin-1-yl)prop-2-en-1-one] reads “++ (++indicates binding activity greater than 25% and up to 50%)”; that for `C=CC(=O)N1CCN(c2ncnc3cc(-c4ccccn4)c(Cl)cc23)CC1` [Compound I-92, 1-(4-(6-chloro-7-(pyridin-2-yl)quinazolin-4-yl)piperazin-1-yl)prop-2-en-1-one], “+ (+indicates binding activity from 5% to 25%)”; that for `C=CC(=O)N1CCN(c2ncnc3cc(-c4ccccc4)c(CC)cc23)CC1` [Compound I-93, 1-(4-(6-ethyl-7-phenylquinazolin-4-yl)piperazin-1-yl)prop-2-en-1-one], “+ (+indicates binding activity from 5% to 25%)”. With `C=CC(=O)N1CCN(c2nc(OC)nc3cc(-c4ccccc4)c(Cl)cc23)CC1` [Compound I-94, 1-(4-(6-chloro-2-methoxy-7-phenylquinazolin-4-yl)piperazin-1-yl)prop-2-en-1-one] the entry was “++ (++indicates binding activity greater than 25% and up to 50%)”. As to `C=CC(=O)N1CCN(c2nc(C)nc3cc(-c4ccccc4)c(Cl)cc23)CC1` [Compound I-95, 1-(4-(6-chloro-2-methyl-7-phenylquinazolin-4-yl)piperazin-1-yl)prop-2-en-1-one], the Binding % result was “++ (++indicates binding activity greater than 25% and up to 50%)”. For `C=CC(=O)N1CC(Nc2ncnc3cc(-c4ccccc4)c(Cl)cc23)C1` [Compound I-96, 1-(3-(6-chloro-7-phenylquinazolin-4-ylamino)azetidin-1-yl)prop-2-en-1-one], the Binding % entry is “+ (+indicates binding activity from 5% to 25%)”.
